Reference: a melting point compilation (Tetko et al.; mined from patent text by program, amines drawn as free bases though some values may be those of a salt)

SMILES | melting point
CC(C)[C@H](C/C=C/C[C@H](C(=O)N1C(=O)OC[C@@H]1Cc1ccccc1)C(C)C)C(=O)N1C(=O)OC[C@@H]1Cc1ccccc1 | 108 to 109 °C
O=CNc1cccc(C(=NOC(=O)C(Cl)Cl)C(=O)O)n1 | 88 to 90 °C
COC(=O)C1=Cc2cc(-c3ccc(C)cc3)ccc2S(=O)(=O)CC1 | 203 to 204 °C
CCc1cc([N+](=O)[O-])c(=O)[nH]c1COCc1ccccc1 | 157 to 158 °C
CN=C1N(C)C(=O)CN1c1ccc(Cl)cc1 | 150 to 152 °C
Nc1ccc(-c2cc(OCC(=O)N3CCOCC3)c3ccccc3n2)cc1 | 174 °C
Cc1cc(SCc2ccc(-c3ccc(C(F)(F)F)cc3)cc2)c(Cl)cc1OCC(=O)O | 161 to 162 °C
O=C(CBr)c1csc(-c2ccc([N+](=O)[O-])cc2)n1 | 186 to 187 °C
COC(=O)CSc1nc(N)c(C=O)nc1Cl | 103 to 104 °C
O=S(=O)(c1ccc(Cl)cc1)N1CCCC1c1cccs1 (racemic) | 84 °C
CCOC(=O)CCCc1ccc(CCl)cc1 | 152 to 155 °C
CCCCCCCCCCCCc1ccc(S(=O)(=O)Nc2nnc(CC(=O)O)s2)cc1 | 194 to 195 °C
CN1CCOC2c3cccc4[nH]cc(c34)CC21 (stereo not drawn) | 175 to 177 °C
COc1cc(C(=O)O)ccc1C(C)c1c[nH]c2ccc(C(=O)NCCC(C)C)cc12 (stereo not drawn) | 190 to 191 °C
O=c1ccc(-c2c(-c3ccccc3)nn3ccccc23)nn1[C@@H]1CCCC[C@@H]1O (relative stereo) | 195 to 197 °C
CN(C)CCc1[nH]c2ccccc2c1CSC1=NCCS1 | 140 to 143 °C
COc1ccc2c(c1)C(CCNC(=O)C(C)C)CC2 (stereo not drawn) | 104 to 105 °C
COC(=O)c1ccc2c(c1)C(c1ccccn1)CC(C)(C)O2 (stereo not drawn) | 113 to 115 °C
O=c1[nH][nH]c(=O)c2c(O)c3ccccc3nc12 | > 400 °C
Nc1ccc(S(=O)(=O)Nc2ccc(C(O)(C(F)(F)F)C(F)(F)F)cc2)cc1 | 160 to 161 °C
CC1(N)CN(C(c2ccccc2)c2ccccc2)C1 | 84 to 86 °C
Cc1cccc(C)c1NC(=O)c1ccc(O)cc1 | 232 to 234 °C
CCOC(=O)c1ccc(N(C(=O)OCC)C(=O)c2ccc(C(=O)C(C)(C)C)cc2)cc1 | 84 to 86 °C
CC(=O)NN1CC(C)=NNC1=O | 197 to 199 °C
CCc1c(-c2ccc(O)cc2)c2ccc3ccc(COCCN4CCCCC4)c1n32 | 68 to 75 °C
COCCOc1cc(N(C)S(=O)(=O)c2cccs2)c2[nH]c(C3=NCC(CCO)S3)cc2c1 (stereo not drawn) | 122 to 123 °C

SMILES | melting point
COc1ccc(S)nn1 | 198 to 200 °C
CCOC(=O)CCCOc1ccc(S(=O)(=O)n2c(=O)[nH]c3cc(Cl)ccc3c2=O)cc1 | 167 to 169 °C
Nc1cccc(C2(O)CCOCC2)c1 | 154 to 155 °C
COc1cc(N2CCCN(C[C@@H](C)O)CC2)ccc1Nc1ncc2ccc(-c3ccccc3N(C)S(C)(=O)=O)n2n1 | 93 to 99 °C
[O-][N+]1=C(c2ccccc2F)c2cc(Cl)ccc2-n2cnc(N3CCCC3)c2C1 | 190 to 192 °C
CCSC1COC(Cn2cncn2)(c2ccc(Cl)cc2Cl)C1 (stereo not drawn) | 64 °C
CN(C)c1nc(N(C)Cc2ccccc2O)nc(N(C)Cc2ccccc2O)n1 | 156 to 157 °C
C#CCOc1cc(-n2nc(C)c([N+](=O)[O-])c2C)c(F)cc1Cl | 125 to 126 °C
O=C1NC(=O)c2c1c(-c1ccccc1Cl)cc1c2cc(C(=O)O)n1CCCBr | 294 to 295 °C
COc1cc(-c2cnc3[nH]cc(C(=O)C4(C)CCCCC4)c3n2)cc(OC)c1OC | 246 to 247 °C
CC(=O)C1C(Cl)CC2C3CCC4CC(O)CCC4(C)C3C(=O)CC21C (stereo not drawn) | 226 to 227 °C
CCCCNC(=O)N1Cc2ccccc2CCC1=O | 84.5 to 85 °C
Cc1oc(-c2ccccc2)nc1COc1ccc(CC(=O)O)cc1 | 181 to 183 °C
O=C(O)c1cccc(-c2ccccc2F)c1 | 147 to 148 °C
O=C(C=Cc1ccccc1O)C=Cc1ccccc1O | 155 °C
CCOC(=O)c1ccc(C(=O)CN2CCN(c3ccncc3)CC2)cc1 | 147 to 149 °C
Cc1cc(C)cc(COC(=O)C(Cc2c[nH]c3ccccc23)NC(=O)C2CCCCC2)c1 (stereo not drawn) | 143 to 144 °C
CC1(C)OC(c2ccc(-c3ccc(Cl)cc3)cc2)OC1=O (stereo not drawn) | 108 to 110 °C
Cc1cnc(-c2ccc(C(F)(F)F)cc2)nc1Cl | 110 to 112 °C
CC(C#N)(C(O)c1ccc(Cl)cc1Cl)n1cncn1 (stereo not drawn) | 164 to 168 °C
Cc1cc(Br)cnc1CCCCNC1=NS(=O)(=O)c2cc(Br)ccc21 | 224 to 232 °C
CCNc1n[nH]c2ccc(C3C(C#N)=C(C)NC(C)=C3C#N)cc12 | 248 °C
CNc1cc(Oc2ccc(NC(=O)Nc3ccc(C(C)(C)C)cc3)cc2)ncn1 | 245 to 246 °C
CCOC(=O)C(CC(=O)O)(C(=O)OCC)n1cccc1 | 93 to 94 °C
CCOP(C)(=O)COS(=O)(=O)c1ccccc1C(F)(F)F (stereo not drawn) | 91 to 92.5 °C
NC(=O)[C@@H]1[C@H](Nc2ccnc3[nH]c(-c4cccc(CN5CCOCC5)c4)nc23)[C@H]2C=C[C@@H]1C2 | 240 to 244 °C

SMILES | melting point
Cc1ccnc2c1N=C(n1ccnc1)c1cccnc1N2C1CC1 | 198 to 200 °C
N#Cc1cnc2sc(Cl)cc2c1Nc1ccc2[nH]ccc2c1 | 228 °C
CC(=O)c1cc(C2CCCCC2)ccc1O | < 50 °C
CCCCCCCCCCCCn1c2cc(Cl)ccc2c2ccc(Cl)cc21 | 70 to 71 °C
CC(C)OC(=O)c1n[nH]c2c(=O)[nH]c3cc(Cl)ccc3c(=O)c12 | 291 °C
Cc1ccsc1C(=O)NP(N)(N)=O | 267 to 275 °C
COn1c(-c2ccccc2)nc2cnc3ccccc3c21 | 194 to 195 °C
CN(C)C(=O)NCC(C)(C)c1ccc2nc(-c3ccncc3)[nH]c2c1 | 136 to 138 °C
COc1ccc(C2CCN(CCCCc3ccccc3)CC2)cc1 | 48 to 50 °C
CNC(=O)c1cccc(C)c1Nc1nc(Nc2ccc3c(c2)N(CCOC)C(=O)CCC3)ncc1Cl | 185 to 187 °C
COc1c(C)ccc(C(C)C)c1CO | 100 to 101 °C
CCOc1cc2c(cc1OCC)C(C(S)(C#N)c1ccc(Cl)cc1)=NCC2 (stereo not drawn) | 157 to 160 °C
CCOC(=O)c1cc2cccnc2nc1C(=O)OCC | 83 to 85 °C
Cc1ncc2n1-c1ccc(C#N)cc1C(c1ccccc1F)=NC2 | 198 to 203 °C
C=CC(=O)Nc1ccc2c(Nc3cccc(Br)c3)ncnc2c1 | > 265 °C
c1cnc(NC2CCN(CC3CCc4ccccc4O3)CC2)nc1 (stereo not drawn) | 142 °C
COc1ccc(CCN2CC(COc3cccc4c(=O)[nH]ccc34)OC2=O)cc1OC (stereo not drawn) | 173 to 175 °C
O=C(O)/C=C/c1nncn1-c1ccc(F)cc1 | 226 to 229 °C
Cc1cccc(Sc2nc(C#N)c(C#N)nc2Cl)c1 | 117 to 119 °C
CCOC(=O)c1c(C)nc(N(C)N)c([N+](=O)[O-])c1Cl | 159 to 161 °C
O=C(O)C1CCC(=O)N1Cc1cccc(F)c1 (stereo not drawn) | 114 to 116 °C
O=C(Nc1ccc2c(c1)NCCC2)c1cc2cc(C(F)(F)F)ccc2n1Cc1cccc(F)c1 | 203 to 204 °C
COc1cc2c(c3c1OC(C)(C)C3)C(c1ccc(=O)n(-c3ccc4ccccc4n3)c1)=NC(C)(C)C2 | 191 to 192 °C
COc1ccc(CN(CCCC(N)=O)Cc2ccc(OC)cc2)cc1 | 53 to 54 °C
CC1CC(=O)NN=C1c1ccc(NC(=O)C(C)(C)C#N)cc1 (stereo not drawn) | 225 to 227 °C
CCCCCC(=O)CCCCc1ccc(O)c(O)c1 | 76 to 78 °C

SMILES | melting point
CCCN(CCC)C1CCC2=C(CC(OC)=CC2)C1 (stereo not drawn) | 47 to 51 °C
CCN(C(=O)c1ccccc1C(=O)c1ccccc1)C(C)(C)CNS(=O)(=O)c1ccc(C)cc1 | 157 to 160 °C
CC(=O)Cc1nc2cc(C)ccc2c(=O)o1 | 142 to 144 °C
COC(=O)c1ccc(N2CCOCC2)c(NC(=N)N)c1 | 152 to 154 °C
COc1c(N)ccc2c1C(CCNC(C)=O)CC2 (stereo not drawn) | 130 to 132 °C
COCCn1cnc2ccc(-c3sc(N)nc3-c3cccc(C)n3)cc21 | 200 to 202 °C
COC1C=C(C)C(=O)CC(C)(C)C1OC(=O)c1ccc(N)cc1N (stereo not drawn) | 178 to 179 °C
O=C(NNC(=O)c1ncnc2[nH]ccc12)OCc1ccccc1 | 187 to 188 °C
COc1nc(C)c(C(C)=O)cc1NC(=S)N1CCN(c2cccc(O)c2)CC1 | 114 to 115 °C
COCCC(=O)N[C@H]1CC[C@H](CCN2CCN(c3ncc(C)c4occc34)CC2)CC1 | 177 °C
O=C1C(=O)c2ccccc2C2=C1SCC1(CCN(C(=O)c3cc4ccccc4s3)CC1)O2 | 110 to 112 °C
Cc1cccc2nc3c(c(N)c12)CCCC3 | 143 to 145 °C
CCCCc1ncc(C=C2C(=O)Nc3ccccc32)n1Cc1ccc(C(=O)OC)cc1Cl | 219 to 220 °C
OCCOCc1csc2ccccc12 | 149 to 150 °C
O=C1NC(=O)c2c1cc1ccc3c(c1c2-c1ccc(F)cc1)OCO3 | 269 to 271 °C
Cc1c[nH]c(-c2ccccc2)c1-c1ccccc1 | 163 to 164 °C
Cc1sc(-c2ccccc2)nc1COc1ccc(COc2ccccc2CC(=O)O)cc1 | 122 to 123 °C
COc1c(Br)c(C)nc(C)c1-c1ccc(Oc2ccc(OC(F)(F)F)cc2)cc1 | 39 to 41 °C
CC(C)(O)COC(=O)N1CCN(C#N)CC1 | 90 to 92 °C
N#CC=C1CCN(c2ccc(N3C[C@H](CNC(=O)CO)OC3=O)cc2F)CC1 | 68 to 70 °C
Cc1ccc(N2C(=O)C(O)=C(C(=O)c3ccc(CC(C)C)cc3)C2c2ccc(OC(F)(F)F)cc2)nn1 (stereo not drawn) | 260 °C
CN(C)Cc1cccc(OCCCNC(=O)COC(=O)c2ccc(Cl)c(Cl)c2)c1 | 48 to 50 °C
Nc1noc(CN2CCC[C@@H](OCc3cc(C(F)(F)F)cc(C(F)(F)F)c3)[C@H]2c2ccccc2)n1 (relative stereo) | 138 to 139 °C
O=C(Nc1ccc(CO)cc1)C1=Cc2cc(-c3ccccc3)ccc2CC1 | 207 to 210 °C
Cn1c(C(F)(F)F)cc(=O)n(-c2cc(Oc3ncccc3[N+](=O)[O-])c(Cl)cc2F)c1=O | 177 to 179 °C
